The source of these data is patent US9663526B2, “Aminopyrimidinyl compounds” (Pfizer Inc., priority 2014, dated 2017).

Where two headings read alike, the source gives them in different places.

The target of test [1] is recombinant human kinase domain of JAK1 (Homo sapiens (Human), UniProt P23458). The experiment in a line: JAK Caliper enzyme assay at 1 mM ATP (JAK1).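 Also: microfluidic mobility-shift readout of synthetic fluorescent peptide phosphorylation, percent product converted from peak height, inhibition relative to DMSO-only wells as uninhibited baseline, room temperature incubation.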 Type of test: biochemical. Conditions: 1 mM ATP; read-out: IC50 (nM) JAK1.
The target in test [2] is recombinant human kinase domain of JAK2 (Homo sapiens (Human), UniProt O60674). Kind of test: JAK Caliper enzyme assay at 1 mM ATP (JAK2).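 Also: microfluidic mobility-shift read-out of fluorescent synthetic peptide phosphorylation, percent product converted from peak heights, room temperature, DMSO-only wells as uninhibited baseline, inhibition curve fit.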 Type of test: biochemical.
Test [3] addresses recombinant human kinase domain of JAK3 (Homo sapiens (Human), UniProt P52333). Kind of test: JAK Caliper enzyme assay at 1 mM ATP (JAK3).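 Also: microfluidic mobility-shift readout of synthetic peptide phosphorylation, percent product converted from peak heights, normalized to DMSO-only wells as uninhibited baseline, room temperature incubation.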 Type of test: biochemical.
In test [4] the test system is interferon alpha signalling (TYK2 and JAK1), STAT3 phosphorylation. The experiment in a line: Human whole blood INFα induced STAT3 phosphorylation assay.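 Also: flow cytometry with anti-pSTAT3 staining, signal as percent-positive × mean fluorescence, baseline from unstimulated wells, 11-point dilution series, IC50 as inhibition of pSTAT3.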 Conditions: compound 60 minutes at 37° C., IFNα 5000 U/ml for 15 minutes, pSTAT3 in lymphocyte population by flow cytometry, read-out: HWB IFN alpha IC50. It counts as cell-based.
Test [5] addresses recombinant human kinase domain of TYK2 (Homo sapiens (Human), UniProt P29597). The experiment in a line: JAK Caliper enzyme assay at 1 mM ATP (TYK2).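 Also: microfluidic mobility-shift readout of synthetic peptide phosphorylation by TYK2, tuned to 20–30% conversion at room temperature, reaction stopped with EDTA, DMSO-only wells as uninhibited baseline.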 Type of test: biochemical. To be noted: 1 mM ATP; read-out: IC50 (nM) TYK2.
The mark [6] stands for this setting: 1 mM ATP, read-out: IC50 (nM) JAK3.

Sequence of recombinant human kinase domain of JAK2 (O60674 849-1124): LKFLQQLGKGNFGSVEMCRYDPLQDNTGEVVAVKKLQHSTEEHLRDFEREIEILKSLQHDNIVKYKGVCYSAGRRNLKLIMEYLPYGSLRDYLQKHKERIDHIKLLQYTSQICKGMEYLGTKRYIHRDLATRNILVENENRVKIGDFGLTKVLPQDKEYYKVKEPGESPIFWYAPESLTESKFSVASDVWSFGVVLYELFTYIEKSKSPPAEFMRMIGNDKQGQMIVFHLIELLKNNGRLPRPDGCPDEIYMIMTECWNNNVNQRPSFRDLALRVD
Sequence of recombinant human kinase domain of TYK2 (P29597 897-1176): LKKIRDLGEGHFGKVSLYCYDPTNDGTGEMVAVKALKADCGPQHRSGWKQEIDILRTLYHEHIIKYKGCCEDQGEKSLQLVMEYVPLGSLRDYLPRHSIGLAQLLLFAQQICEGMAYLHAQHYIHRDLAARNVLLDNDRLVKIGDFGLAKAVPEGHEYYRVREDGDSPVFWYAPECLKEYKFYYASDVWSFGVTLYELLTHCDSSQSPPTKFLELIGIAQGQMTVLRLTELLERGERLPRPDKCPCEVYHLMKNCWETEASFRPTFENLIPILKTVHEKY
Sequence of recombinant human kinase domain of JAK3 (P52333 822-1111): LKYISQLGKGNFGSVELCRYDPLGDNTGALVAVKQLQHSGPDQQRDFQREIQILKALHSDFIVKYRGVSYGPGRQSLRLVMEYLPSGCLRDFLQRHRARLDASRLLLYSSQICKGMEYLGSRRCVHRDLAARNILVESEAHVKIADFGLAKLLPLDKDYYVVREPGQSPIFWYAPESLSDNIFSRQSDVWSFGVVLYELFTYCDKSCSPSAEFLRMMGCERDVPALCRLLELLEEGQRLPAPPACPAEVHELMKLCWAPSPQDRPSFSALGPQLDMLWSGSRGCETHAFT
Sequence of recombinant human kinase domain of JAK1 (P23458 875-1153): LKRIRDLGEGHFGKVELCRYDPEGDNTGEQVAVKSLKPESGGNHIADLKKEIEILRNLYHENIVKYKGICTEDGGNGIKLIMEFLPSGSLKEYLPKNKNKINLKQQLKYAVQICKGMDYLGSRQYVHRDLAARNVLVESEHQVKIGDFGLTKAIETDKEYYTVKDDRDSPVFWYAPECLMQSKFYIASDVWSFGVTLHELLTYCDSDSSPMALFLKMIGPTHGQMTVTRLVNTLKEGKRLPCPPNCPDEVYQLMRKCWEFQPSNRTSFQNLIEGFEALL

For `Cc1cnc(Nc2ccc(OCCO)nc2)nc1N1C[C@H]2[C@@H](C)[C@@]2(NC(=O)[C@H]2C[C@@H]2C#N)C1` [Example 98, (1S,2S)-2-cyano-N-[(1S,5R,6R)-3-(2-{[6-(2-hydroxyethoxy)pyridin-3-yl]amino}-5-methylpyrimidin-4-yl)-6-methyl-3-azabicyclo[3.1.0]hex-1-yl]cyclopropanecarboxamide], the IC50 (usually the concentration at which inhibition is half-maximal) in test [1] was determined as 13 nM; in test [2], 147 nM; in test [3] (setting [6]), 2600 nM; in test [4], 0.246 µM.

On to `O=C([C@@H]1CC1(F)F)N1[C@@H]2CC[C@H]1CN(c1ccnc(Nc3cnc(N4CC[C@@H](O)C4)c(F)c3)n1)C2` [Example 21, [(1S)-2,2-difluorocyclopropyl]{(1R,5S)-3-[2-({5-fluoro-6-[(3R)-3-hydroxypyrrolidin-1-yl]pyridin-3-yl}amino)pyrimidin-4-yl]-3,8-diazabicyclo[3.2.1]oct-8-yl}methanone], for which the IC50 in test [4] worked out at 0.731 µM.

`Cn1cc(Nc2nccc(N3C[C@H]4CC[C@@H](C3)N4C3(CC#N)CN(S(C)(=O)=O)C3)n2)cn1` [Example 83, {3-[(1R,5S)-3-{2-[(1-methyl-1H-pyrazol-4-yl)amino]pyrimidin-4-yl}-3,8-diazabicyclo[3.2.1]oct-8-yl]-1-(methylsulfonyl)azetidin-3-yl}acetonitrile]: the IC50 in test [3] (setting [6]) was 1240 nM; in test [4], 0.085 µM.

For the molecule `CNC(=O)c1ncc(Nc2nccc(N3C[C@H]4CC[C@@H](C3)N4C(=O)NCC#N)n2)cc1C` [Example 90, (1R,5S)—N-(cyanomethyl)-3-(2-{[5-methyl-6-(methylcarbamoyl)pyridin-3-yl]amino}pyrimidin-4-yl)-3,8-diazabicyclo[3.2.1]octane-8-carboxamide], the IC50 in test [1] turned out to be 17 nM; in test [3] (setting [6]), 4170 nM; in test [4], 0.247 µM.

Consider `Cc1cc(Nc2nccc(N3C[C@H]4CC[C@@H](C3)N4C(=O)C3CC3)n2)cnc1C(N)=O` [Example 15, 5-({4-[(1R,5S)-8-(cyclopropylcarbonyl)-3,8-diazabicyclo[3.2.1]oct-3-yl]pyrimidin-2-yl}amino)-3-methylpyridine-2-carboxamide], for which the IC50 in test [4] came to 0.534 µM.

In the case of `O=C([C@@H]1CC1(F)F)N1[C@@H]2CC[C@H]1CN(c1ccnc(Nc3cnc(OCCO)c(Cl)c3)n1)C2` [Example 23, [(1R,5S)-3-(2-{[5-chloro-6-(2-hydroxyethoxy)pyridin-3-yl]amino}pyrimidin-4-yl)-3,8-diazabicyclo[3.2.1]oct-8-yl][(1S)-2,2-difluorocyclopropyl]methanone], the IC50 in test [4] amounted to 0.428 µM.

Turning to `Cn1cc(Nc2nccc(N3C[C@H]4CC[C@@H](C3)N4C(=O)[C@@H]3CC3(F)F)n2)cn1` [Example 7, [(1S)-2,2-difluorocyclopropyl][(1R,5S)-3-{2-[(1-methyl-1H-pyrazol-4-yl)amino]pyrimidin-4-yl}-3,8-diazabicyclo[3.2.1]oct-8-yl]methanone], the IC50 in test [4] was found to be 0.03 µM.

With `CNC(=O)c1ncc(Nc2nccc(N3C[C@H]4CC[C@@H](C3)N4C(=O)[C@@H]3C[C@H]3F)n2)cc1C` [Example 45, 5-({4-[(1R,5S)-8-{[(1S,2R)-2-fluorocyclopropyl]carbonyl}-3,8-diazabicyclo[3.2.1]oct-3-yl]pyrimidin-2-yl}amino)-N,3-dimethylpyridine-2-carboxamide], the half-maximal inhibitory concentration (IC50) in test [1] came out at 46 nM; in test [2] it was 100 nM; in test [3] (setting [6]), 7400 nM; in test [4] it was 0.11 µM.

Turning to `CCNC(=O)N1[C@@H]2CC[C@H]1CN(c1ccnc(Nc3cn[nH]c3)n1)C2` [Example 5, (1R,5S)—N-ethyl-3-[2-(1H-pyrazol-4-ylamino)pyrimidin-4-yl]-3,8-diazabicyclo[3.2.1]octane-8-carboxamide], the concentration for half-maximal inhibition (IC50) in test [2] is 477 nM; in test [3] (setting [6]), over 10000 nM; in test [4], 0.105 µM.

As to `CNC(=O)c1ncc(Nc2nccc(N3C[C@H]4CC[C@@H](C3)N4C[C@@H]3CC3(F)F)n2)cc1C` (single isomer, unassigned) [Example 67], the IC50 is 418 nM in test [1], 973 nM in test [2], over 10000 nM in test [3] (setting [6]) and 108 nM in test [5].

Take `O=C(N[C@]12C[C@H]1CN(c1nc(Nc3cnn(CCO)c3)ncc1Cl)C2)C1CC1` [Example 108, N-[(1R,5S)-3-(5-chloro-2-{[1-(2-hydroxyethyl)-1H-pyrazol-4-yl]amino}pyrimidin-4-yl)-3-azabicyclo[3.1.0]hex-1-yl]cyclopropanecarboxamide]: the concentration for half-maximal inhibition (IC50) stood at 323 nM in test [1], 1490 nM in test [2], 3960 nM in test [3] (setting [6]) and 675 nM in test [5].

Turning to `O=C(C1CC1)N1[C@@H]2CC[C@H]1CN(c1ccnc(Nc3cnsc3)n1)C2` [Example 52, cyclopropyl{(1R,5S)-3-[2-(1,2-thiazol-4-ylamino)pyrimidin-4-yl]-3,8-diazabicyclo[3.2.1]oct-8-yl}methanone], the IC50 in test [1] is 172 nM; in test [2], 1240 nM; in test [3] (setting [6]) it was over 10000 nM; in test [5], 93 nM.

Regarding `Cn1cc(Nc2nccc(N3C[C@H]4CC[C@@H](C3)N4C[C@H]3C[C@@H]3C#N)n2)cn1` [Example 70, (1S,2S)-2-{[(1R,5S)-3-{2-[(1-methyl-1H-pyrazol-4-yl)amino]pyrimidin-4-yl}-3,8-diazabicyclo[3.2.1 l]oct-8-yl]methyl}cyclopropanecarbonitrile], the IC50 in test [1] was 259 nM; in test [2], 1540 nM; in test [3] (setting [6]), over 10000 nM; in test [5], 261 nM.

In the case of `Cn1cc(Nc2nccc(N3C[C@H]4CC[C@@H](C3)N4C[C@H]3C[C@@H]3C#N)n2)cn1` [Example 69, (1S,2S)-2-{[(1R,5S)-3-{2-[(1-methyl-1H-pyrazol-4-yl)amino]pyrimidin-4-yl}-3,8-diazabicyclo[3.2.1]oct-8-yl]methyl}cyclopropanecarbonitrile], the IC50 in test [1] is 1100 nM; in test [2], 5700 nM; in test [3] it was over 10000 nM; in test [5], 811 nM.

For `CNC(=O)c1ncc(Nc2nccc(N3C[C@H]4CC[C@@H](C3)N4C(=O)[C@@H]3C[C@H]3C#N)n2)cc1C` [Example 32, 5-({4-[(1R,5S)-8-{[(1R,2R)-2-cyanocyclopropyl]carbonyl}-3,8-diazabicyclo[3.2.1]oct-3-yl]pyrimidin-2-yl}amino)-N,3-dimethylpyridine-2-carboxamide], the IC50 in test [2] was 140 nM; in test [3] (setting [6]), over 10000 nM; in test [4], 0.115 µM.

For the molecule `Cn1cc(Nc2nccc(N3C[C@H]4CC[C@@H](C3)N4C(=O)[C@@H]3C[C@@H]3C#N)n2)cn1` [Example 37, (1S,2R)-2-{[(1R,5S)-3-{2-[(1-methyl-1H-pyrazol-4-yl)amino]pyrimidin-4-yl}-3,8-diazabicyclo[3.2.1]oct-8-yl]carbonyl}cyclopropanecarbonitrile], the IC50 in test [1] was found to be 467 nM; in test [2] it was 1400 nM; in test [3] (setting [6]) it was 8310 nM; in test [5] it was 250 nM.

Regarding `Cn1cc(Nc2nccc(N3C[C@H]4CC[C@@H](C3)N4C(=O)C3CC(F)(F)C3)n2)cn1` [Example 39, (3,3-difluorocyclobutyl)[(1R,5S)-3-{2-[(1-methyl-1H-pyrazol-4-yl)amino]pyrimidin-4-yl}-3,8-diazabicyclo[3.2.1]oct-8-yl]methanone], the IC50 in test [1] was 305 nM; in test [2] it was 1170 nM; in test [3] (setting [6]) it was over 10000 nM; in test [5] it was 136 nM.
